Assay results as given in PubChem BioAssay AID318 (DTP/NCI, 2004).
Where “and” joins values, the source holds several entries; their conditions need not be identical. Equal values may be shown once. Toxic doses and inconclusive results are not listed.

System: BDF1 mice, P815 leukemia ip, survival T/C
Test: NCI In Vivo Anticancer Drug Screen. Data for tumor model P815 Mast Cell Leukemia (Ascitic) (intraperitoneal) in B6D2F1 (BDF1) mice
Settings: endpoint: survival time, mean or median, higher = longer survival
Experimental: The antitumor activity of compounds was measured in mice bearing transplantable tumors. Survival or tumor size were measured and the results are expressed as the measurement made in the treated group (T) divided by the measurement made in the vehicle treated control group (C). The tumor model used in this assay is P815 Mast Cell Leukemia (Ascitic) (intraperitoneal) in B6D2F1 (BDF1) mice

[1] = dose: 5.0 mg/kg/injection, schedule: Q01DX010 (ip), vehicle: saline
[2] = dose: 10.0 mg/kg/injection, schedule: Q01DX010 (ip), vehicle: saline
[3] = dose: 20.0 mg/kg/injection, schedule: Q01DX010 (ip), vehicle: saline
[4] = dose: 40.0 mg/kg/injection, schedule: Q01DX010 (ip), vehicle: saline

Oc1ccccc1C(Nc1nc2ccccc2s1)c1ccc2cccnc2c1O (centres undefined)
T/C (dose: 62.5 mg/kg/injection, schedule: Q01DX015 (ip), vehicle: other): 90 % of control | T/C (dose: 125.0 mg/kg/injection, schedule: Q01DX015 (ip), vehicle: other): 120 % of control | T/C (dose: 250.0 mg/kg/injection, schedule: Q01DX015 (ip), vehicle: other): 98 % of control

O=c1cnn(C2OC(CO)C(O)C2O)c(=O)[nH]1 (centres undefined)
T/C (dose: 800.0 mg/kg/injection, schedule: Q01DX010 (ip), vehicle: saline): 111 % of control | T/C (dose: 1600.0 mg/kg/injection, schedule: Q01DX010 (ip), vehicle: saline): 100 % of control

CCCSc1ncnc2nc[nH]c12
T/C (dose: 31.3 mg/kg/injection, schedule: Q01DX010 (ip), vehicle: saline): 100 % of control and 111 % of control | T/C (dose: 62.5 mg/kg/injection, schedule: Q01DX010 (ip), vehicle: saline): 111 % of control | T/C (dose: 125.0 mg/kg/injection, schedule: Q01DX010 (ip), vehicle: saline): 111 % of control and 122 % of control

Nc1nc(=S)c2[nH]cnc2[nH]1
T/C (dose: 2.5 mg/kg/injection, schedule: Q01DX010 (ip), vehicle: saline): 95 % of control | T/C [1]: 122 % of control | T/C [2]: 90 % of control and 118 % of control

O=NN(CCCl)C(=O)NCCCl
T/C (dose: 6.25 mg/kg/injection, schedule: Q01DX010 (ip), vehicle: saline): 245 % of control and 263 % of control | T/C (dose: 12.5 mg/kg/injection, schedule: Q01DX010 (ip), vehicle: saline): 159 % of control

CS(=O)(=O)OCCCl
T/C (dose: 18.8 mg/kg/injection, schedule: Q01DX010 (ip), vehicle: saline): 100 % of control and 105 % of control | T/C (dose: 37.5 mg/kg/injection, schedule: Q01DX010 (ip), vehicle: saline): 100 % of control | T/C (dose: 75.0 mg/kg/injection, schedule: Q01DX010 (ip), vehicle: saline): 100 % of control and 111 % of control

CN(C)c1ccc(/C=C/c2ccnc3ccccc23)cc1
T/C [1]: 100 % of control | T/C [2]: 88 % of control and 94 % of control | T/C [3]: 88 % of control and 100 % of control | T/C [4]: 100 % of control

N=C(N)SCc1c2ccccc2c(CSC(=N)N)c2ccccc12
T/C [1]: 162 % of control | T/C [2]: 175 % of control and 200 % of control | T/C [3]: 150 % of control | T/C [4]: 150 % of control
